From paper PMC9331314, “Synthesis and Antiviral Properties of Camphor-Derived Iminothiazolidine-4-Ones and 2,3-Dihydrothiazoles” (Molecules, 2022)
Read-outs that look alike come from different tables or passages of the source.

Key:
[1] = system: vaccinia virus (strain Copenhagen); assay: microbe, parasite or virus in culture; conditions: Orthopoxvirus vaccinia, Vero, 96 h
[2] = system: Marburg pseudovirus (GP MARV); assay: microbe, parasite or virus in culture; conditions: 24 h
[3] = system: vaccinia virus (strain Copenhagen)
in vitro [4] = conditions: African green monkey
in vitro [5] = conditions: human
[6] = system: Marburg pseudovirus (GP MARV)

SMILES	IC50 [1]	IC50 [2]	SI (CC50/IC50) [3]	CC50 (in vitro [4])	CC50 (in vitro [5])	SI (CC50/IC50) [6]	IC50 [6]
C=CCNC(=S)N/N=C1\C[C@@H]2CC[C@@]1(C)C2(C)C [2′b, (E)-N-allyl-2-((1S,4S)-1,7,7-trimethylbicyclo[2.2.1]heptan-2-ylidene)hydrazinecarbothioamide]	12 ± 2.9 µM	3.8 ± 1.9 µM	3	35 ± 4.6 µM	56.5 ± 8.2 µM	15	
CCNC(=S)N/N=C1\C[C@@H]2CC[C@@]1(C)C2(C)C [2′c, (E)-N-ethyl-2-((1S,4S)-1,7,7-trimethylbicyclo[2.2.1]heptan-2-ylidene)hydrazinecarbothioamide]	14 ± 2.6 µM	9.1 ± 3.9 µM	3	45 ± 6.6 µM	530 ± 35.4 µM	16	
CC1(C)[C@H]2CC[C@]1(C)/C(=N\N=C1\SCC(=O)N1c1ccccc1)C2 [3′a, (Z)-3-phenyl-2-((E)-((1S,4S)-1,7,7-trimethylbicyclo[2.2.1]heptan-2-ylidene)hydrazono)thiazolidin-4-one]	75 ± 13.7 µM		4	290 ± 36.9 µM			
C=CCN1C(=O)CS/C1=N/N=C1/C[C@@H]2CC[C@@]1(C)C2(C)C [3′b, (Z)-3-allyl-2-((E)-((1S,4S)-1,7,7-trimethylbicyclo[2.2.1]heptan-2-ylidene)hydrazono)thiazolidin-4-one]	66 ± 12.9 µM	45.8 ± 6.5 µM	2	160 ± 20.8 µM	121 ± 6.5 µM	3	
CCN1C(=O)CS/C1=N/N=C1/C[C@@H]2CC[C@@]1(C)C2(C)C [3′c, (Z)-3-ethyl-2-((E)-((1S,4S)-1,7,7-trimethylbicyclo[2.2.1]heptan-2-ylidene)hydrazono)thiazolidin-4-one]	64 ± 12.3 µM	68.2 ± 20.4 µM	4	220 ± 28.6 µM	170 ± 40.9 µM	3	
CN1C(=O)CS/C1=N/N=C1/C[C@@H]2CC[C@@]1(C)C2(C)C [3′d, (Z)-3-methyl-2-((E)-((1S,4S)-1,7,7-trimethylbicyclo[2.2.1]heptan-2-ylidene)hydrazono)thiazolidin-4-one]		28.6 ± 10.7 µM		250 ± 31.4 µM	182 ± 14.3 µM	6	
Nc1ccn(C[C@@H](CO)OCP(=O)(O)O)c(=O)n1 [Cidofovir, reference compound]	40.1 ± 2.8 µM		12	475 ± 74.9 µM			
C=CCN1C(=O)CS/C1=N/N=C1/C[C@H]2CC[C@]1(C)C2(C)C [Compound 3b, (Z)-3-allyl-2-((E)-((1R,4R)-1,7,7-trimethylbicyclo[2.2.1]heptan-2-ylidene)hydrazono)thiazolidin-4-one]	72 ± 12.2 µM	22.9 ± 0.7 µM		99 ± 11.8 µM	108 ± 6.5 µM	5	
CCN1C(=O)CS/C1=N/N=C1/C[C@H]2CC[C@]1(C)C2(C)C [Compound 3c, (Z)-3-ethyl-2-((E)-((1R,4R)-1,7,7-trimethylbicyclo[2.2.1]heptan-2-ylidene)hydrazono)thiazolidin-4-one]	24 ± 3.9 µM	30.7 ± 6.8 µM	4	87 ± 10.1 µM	54.1 ± 9.2 µM	2	
CN1C(=O)CS/C1=N/N=C1/C[C@H]2CC[C@]1(C)C2(C)C [Compound 3d, (Z)-3-methyl-2-((E)-((1R,4R)-1,7,7-trimethylbicyclo[2.2.1]heptan-2-ylidene)hydrazono)thiazolidin-4-one]	100 ± 17.6 µM		3	310 ± 41.3 µM			
CC1(C)S/C(=N/N=C2/C[C@H]3CC[C@]2(C)C3(C)C)N(c2ccccc2)C1=O [Compound 4a, (Z)-5,5-dimethyl-3-phenyl-2-((E)-((1R,4R)-1,7,7-trimethylbicyclo[2.2.1]heptan-2-ylidene)hydrazono)thiazolidin-4-one]	32.5 ± 2.8 µM	94.7 ± 8.1 µM	8	270 ± 35.2 µM	325 ± 36.1 µM	3	
CCN1C(=O)C(C)(C)SC1=NN=C1CC2CCC1(C)C2(C)C [Compound 4c, ((Z)-3-ethyl-5,5-dimethyl-2-((E)-((1R,4R)-1,7,7-trimethylbicyclo[2.2.1]heptan-2-ylidene)hydrazono)thiazolidin-4-one]		171 ± 46.7 µM		290 ± 34.9 µM	778 ± 82.8 µM	5	
C=CCn1c(-c2ccc(Cl)cc2)cs/c1=N/N=C1\C[C@H]2CC[C@]1(C)C2(C)C [Compound 5b, (E)-3-allyl-4-(4-chlorophenyl)-2-((E)-((1R,4R)-1,7,7-trimethylbicyclo[2.2.1]heptan-2-ylidene)hydrazono)-2,3-dihydrothiazole]	2.5 ± 0.3 µM	30 ± 10 µM	8	19 ± 2.8 µM	80 ± 20 µM	3	
Cc1ccc(-c2cs/c(=N/N=C3\C[C@H]4CC[C@]3(C)C4(C)C)n2-c2ccccc2)cc1 [Compound 6a, (E)-3-phenyl-4-p-tolyl-2-((E)-((1R,4R)-1,7,7-trimethylbicyclo[2.2.1]heptan-2-ylidene)hydrazono)-2,3-dihydrothiazole]		60.2 ± 14.4 µM		98 ± 11.6 µM	135 ± 19.2 µM	2	
CCn1c(-c2ccc(C)cc2)cs/c1=N/N=C1\C[C@H]2CC[C@]1(C)C2(C)C [Compound 6c, (E)-3-ethyl-4-p-tolyl-2-((E)-((1R,4R)-1,7,7-trimethylbicyclo[2.2.1]heptan-2-ylidene)hydrazono)-2,3-dihydrothiazole]				15 ± 2.9 µM			
COc1ccc(-c2cs/c(=N/N=C3\C[C@H]4CC[C@]3(C)C4(C)C)n2-c2ccccc2)cc1 [Compound 7a, (E)-4-(4-methoxyphenyl)-3-phenyl-2-((E)-((1R,4R)-1,7,7-trimethylbicyclo[2.2.1]heptan-2-ylidene)hydrazono)-2,3-dihydrothiazole]		127 ± 23.2 µM		232 ± 29.6 µM	973 ± 61.6 µM	8	
C=CCn1c(-c2ccc(OC)cc2)cs/c1=N/N=C1\C[C@H]2CC[C@]1(C)C2(C)C [Compound 7b, (E)-3-allyl-4-(4-methoxyphenyl)-2-((E)-((1R,4R)-1,7,7-trimethylbicyclo[2.2.1]heptan-2-ylidene)hydrazono)-2,3-dihydrothiazole]		13.9 ± 2.5 µM		200 ± 23.1 µM	37.9 ± 8.3 µM	3	
CCn1c(-c2ccc(OC)cc2)cs/c1=N/N=C1\C[C@H]2CC[C@]1(C)C2(C)C [Compound 7c, (E)-3-ethyl-4-(4-methoxyphenyl)-2-((E)-((1R,4R)-1,7,7-trimethylbicyclo[2.2.1]heptan-2-ylidene)hydrazono)-2,3-dihydrothiazole]		13 ± 5.2 µM			117 ± 10.4 µM	9	
COc1ccc(-c2cs/c(=N/N=C3\C[C@H]4CC[C@]3(C)C4(C)C)n2C)cc1 [Compound 7d, (E)-4-(4-methoxyphenyl)-3-methyl-2-((E)-((1R,4R)-1,7,7-trimethylbicyclo[2.2.1]heptan-2-ylidene)hydrazono)-2,3-dihydrothiazole]					97.4 ± 21.6 µM	4	27.1 ± 8.1 µM
CN[C@H]1CC[C@@H](c2ccc(Cl)c(Cl)c2)c2ccccc21 [Sertraline, reference compound]					408 ± 35.9 µM		
